Data published in patent US8404696B2, “Quinazoline-2,4-dione derivative, and medical compositions for the prophylaxis and treatment of cranial nerve disease containing the same” (Shin Poong Pharmaceutical Co., Ltd., priority 2008, dated 2013).

Columns and labels:
[1] = system: pentylentetrazole (PTZ)-induced convulsion; assay: Anti-convulsant effect, pentylentetrazole (PTZ) test; assay type: in vivo; details: 10 mg/kg intraperitoneally, PTZ 80 mg/kg subcutaneously; for mortality rate / Induction percentage of convulsion: (animals/total); for mortality rate: negative control 70(17/23); for Induction percentage of convulsion: negative control 100(23/23); for Initiation time of convulsion: negative control 5.0 ± 0.7; for Duration of convulsion: negative control 46.7 ± 3.3
Experimental: An experiment was performed by the method of Ali et al. (Ali, A. et al. 2006, Pharmacological Reports, 58: 242-245). A 10 mg/kg dose of compound was intraperitoneally administered to identify the anti-convulsant effect and the effect was observed (Table 8). Researching the process of activity was performed by the Anti-epileptic Drug Development Program (ADD) of NIH during development of the anti-convulsant drug. One of the assessed items of anti-convulsant activity in the first step of this program is the pentylentetrazole (PTZ) test. […] After 10 mg/kg of the testing drug was administered, assessment was performed by estimating the initiation time of convulsion, duration until convulsion completely disappeared and mortality rate. It was assessed as having an anti-convulsant effect when a single episode of clonic spasm was not shown over 5 seconds on at least one of the 4 laboratory animals after PTZ administration.

thoracic aorta of rats = assay: Relaxing effect on thoracic aorta contracted by phenylephrine (organ bath); set-up: species or system rats of SD species; details: 67 μg/mL, phenylephrine 0.5 μM, mean n = 3; for inhibition at 67 µg/mL: Rattus norvegicus, read-out: Relaxation percentage
Excerpt: After male rats of SD species (250-300 g) were anesthetized by inhalation of ether, their thoracic aortas were extracted and put into a Krebs buffer (mM; NaCl 118, NaHCO3 27.3, KCl 4.8, MgSO4 1.2, KH2PO4 1.0, CaCl2 1.25, glucose 11.1). 2 mm of aortic ring was made under dissecting microscope and cultured in an organ bath to measure the tension of blood vessels. The organ bath was filled with Krebs buffer and saturated with 95% O2, 5% CO2 to maintain dissolved oxygen and physiological pH. Changing of tension was measured by a tension meter (Hugo-sachs, model K30) and recorded by physiological recorder (Coulbourn polygraph). The length of the blood vessels was increased step by step to make 1.0 g of basal tension for 90 minutes. The equilibrated blood vessel was contracted by phenylephrine (0.5 μM). When the contraction furrow reached equilibrium, compounds were added, followed by observation of relaxation response.

[2] = system: mixed culture of nerve cells-glial cells; assay: Protecting effect on NMDA-induced nerve cell death (LDH release); assay type: cell-based, ICR mouse; details: 100 μM NMDA, LDH release after 24 hours
Experimental: Isolation and culture of nerve cells were performed by Choi's method (Choi, D. W. 1985, Neurosci. Lett., 58: 293-297). That is, the cortex was isolated in fetus ICR mouse that was 14 days pregnant, and then single cells were obtained from the tissue using pipette. The cells were aliquoted into 2×10^5/well density in a 24-well plate (Falcon) in which glial cells of cerebral cortex had been cultured in an incubator maintained at 37° C. with 5% CO2 for over 3 weeks. The culture medium was supplemented with MEM (minimum essential medium, Sigma), 2 mM glutamine, 21 mM glucose, 26.5 mM bicarbonate, 10% fetal bovine serum (FBS). In 3-5 days after aliquot, 10 μM Ara-C (cytosine arabinoside) was treated to suppress proliferation of neuroglia. And it was treated with 100 μM NMDA and 1 μg/mL or 2 μg/mL of each sample (compound) to induce the death of nerve cells due to excitable toxicity for 20 minutes, in 12-15 days after aliquot. Because of nerve cell death, lactate dehydrogenase (LDH) accumulated in proportion to the number of dead cells. In 24 hours after drug treatment, the amount of dehydrogenase (LDH) released to outside of cells was measured by using an […] measurement kit (CytoTox 96, Promega). After the reaction was completed, the change of absorbance depending on the amount of LDH was measured by using a microplate spectrophotometer.

[3] = system: middle cerebral artery occlusion (MCAO) model; assay: Anti-stroke effect in MCAO model, intravenous administration around reperfusion; assay type: in vivo, rats of SD species; details: for Inhibitory percentage compared to negative control / Infarcted volume (Mean ± standard deviation): 1 mg/kg iv; for Infarcted volume (Mean ± standard deviation): negative control 0.43 ± 0.02
Experimental: Male rats of SD species with 290-300 g of body weight were used as laboratory animals, and 8 rats were used in each experiment group. The operation was performed by using the method of Nagasawa et al. (Nagasawa, H. and Gogure, K. 1989, Stroke, 20: 1037-1043).
The rats were anesthetized by Ketamine, and the operation was performed as body temperature was maintained using thermoplate. The cerebral region was incised following the median line of the neck, and the left common carotid artery, internal carotid artery and external carotid artery were separated, taking care not to damage the vagus nerve. The common carotid artery and external carotid artery were ligatured, and a probe was inserted into the internal carotid artery from the branch point of the internal and external carotid arteries. And then the fundus of the middle cerebral artery was occluded by ligature just on the upper side of the insertion region. A probe was made by heating the end of a 4-0 nylon surgical suture (Dafilon, B. Braun, Germany) and cut into 30 mm. The 7-9 mm end of the probe was coated with the mixture of silcon (Xantopren VL plus, Heraeus Kulzer, Germany) and curing agent (Optosyl-Xantopren VL plus, Heraeus Kulzer, Germany), and the thickness was to be 0.3-0.4 mm. After the intervention of the probe insertion and the animals came out of the anesthetic, individuals in which neurological deficit symptom (right direction circling) was observed were included in the ischemia group.
After 3 hours of ischemia, the inserted probe was removed to reperfuse blood circulation. The brain was extracted after 24 hours, followed by histological staining.
The compound 3 was administered at a programmed time before or after insertion of the probe with oral or intravenous administration. TTC (2,3,5-triphenyltetrazolium chloride) staining was performed to estimate the damage of brain tissue by ischemia. Procephalon of the extracted brain was sliced into 2 mm of sequential slice by using brain matrix (ASI instrument, Warren, Mich., USA). The slices were put into 2% of TTC solution and incubated at 37° C. for 60 minutes for staining. The TTC stained brain slice was fixed in 10% of formalin buffer and the front of the each slice was photographed with a digital camera. The infarcted areas (cm^2) that were not stained with deep red in each acquired image were measured using an image analyzer, and total infarcted volume (cm^3) was calculated by multiplying the thickness of the slices
In the experiment, the probe was removed after stoke induction so that circulation was reperfused.

[4] = treatment time 0.5 after reperfusion
[5] = treatment time 1 after reperfusion
[6] = treatment time 2 after reperfusion
[7] = treatment time 4 after reperfusion
[8] = treatment time 6 after reperfusion
[9] = treatment time 12 after reperfusion
[10] = treatment time 18 after reperfusion
[11] = treatment time 24 after reperfusion
[12] = treatment time −0.5 after reperfusion

SMILES | mortality rate [1] | Induction percentage of convulsion [1] | inhibition at 67 µg/mL (thoracic aorta of rats) [%] | Inhibitory effect of cell death by NMDA-induced excitable neurotoxicity ([2]; 1 μg/ml compound) [%] | Inhibitory effect of cell death by NMDA-induced excitable neurotoxicity ([2]; 2 μg/ml compound) [%] | Initiation time of convulsion [1] [min] | Duration of convulsion [1] [min] | further results
CN1C(=O)CN=C(c2ccccc2)c2cc(Cl)ccc21 [Diazepam, reference compound] | 0(0/6) % | 0(0/6) % |  |  |  |  |  | 
CS(=O)(=O)N(CCCCN(CCCn1c(=O)[nH]c2ccccc2c1=O)S(C)(=O)=O)CCCn1c(=O)[nH]c2ccccc2c1=O [Compound 18, N-[3-(2,4-dioxo-1,4-dihydro-2H-quinazolin-3-yl)propyl]-N-(4-{[3-(2,4-dioxo-1,4-dihydro-2H-quinazolin-3-yl)propyl]methansulfonylamino}butyl)methansulfonamide] | 0(0/6) % | 83(5/6) % | 42.4 | 44.4 | 21.0 | 19.1 ± 8.4 | 5.2 ± 3.4 | 
CC(=O)N(CCCCNCCCn1c(=O)[nH]c2ccccc2c1=O)CCCNC(=O)c1ccc(O)cc1 [Compound 19, N-[3-(acetyl-{4-[3-(2,4-dioxo-1,4-dihydro-2H-quinazolin-3-yl)propylamino]butyl}amino)propyl]-4-hydroxybenzamide] | 0(0/6) % | 50(3/6) % | 11.8 | 40.1 | 45.2 | 38.7 ± 1.5 | 1.8 ± 2.7 | 
O=c1[nH]c2ccccc2c(=O)n1CCCNCCCCN(CCCn1c(=O)[nH]c2ccccc2c1=O)Cc1ccccc1 [Compound 9, 3-{3-[4-({N-[3-(2,4-dioxo-1,4-dihydro-2H-quinazolin-3-yl)propyl]-N-benzyl}amino)butylamino]propyl}-1H-quinazoline-2,4-dione] | 67(4/6) % | 100(6/6) % |  | 21.4 | 33.3 | 4.4 ± 0.7 | 39.8 ± 10.3 | Relaxation percentage (thoracic aorta of rats): 95.5%
O=C(c1ccccc1)N(CCCCNCCCn1c(=O)[nH]c2ccccc2c1=O)CCCn1c(=O)[nH]c2ccccc2c1=O [Compound 10, N-[3-(2,4-dioxo-1,4-dihydro-2H-quinazolin-3-yl)propyl]-N-{4-[3-(2,4-dioxo-1,4-dihydro-2H-quinazolin-3-yl)propylamino]butyl}benzamide] | 17(1/6) % | 100(6/6) % | 4.9 | 15.4 | 13.7 | 5.8 ± 1.4 | 49.9 ± 5.4 | 
C[C@]12N[C@H](Cc3ccccc31)c1ccccc12 [MK-801] |  |  |  | 49.0 | 63.6 |  |  | Inhibitory percentage compared to negative control [3, 4]: 50.2%; Infarcted volume (Mean ± standard deviation) [3, 4]: 0.21 ± 0.04 cm^3; Inhibitory percentage compared to negative control [3, 5]: 27.0%; Infarcted volume (Mean ± standard deviation) [3, 5]: 0.31 ± 0.02 cm^3; Inhibitory percentage compared to negative control [3, 6]: 22.8%; Infarcted volume (Mean ± standard deviation) [3, 6]: 0.33 ± 0.02 cm^3; Inhibitory percentage compared to negative control [3, 7]: 34.4%; Infarcted volume (Mean ± standard deviation) [3, 7]: 0.28 ± 0.08 cm^3; Inhibitory percentage compared to negative control [3, 8]: 13.3%; Infarcted volume (Mean ± standard deviation) [3, 8]: 0.37 ± 0.06 cm^3; Inhibitory percentage compared to negative control [3, 9]: 8.7%; Infarcted volume (Mean ± standard deviation) [3, 9]: 0.39 ± 0.06 cm^3; Inhibitory percentage compared to negative control [3, 10]: 7.4%; Infarcted volume (Mean ± standard deviation) [3, 10]: 0.40 ± 0.08 cm^3; Inhibitory percentage compared to negative control [3, 11]: 8.8%; Infarcted volume (Mean ± standard deviation) [3, 11]: 0.39 ± 0.05 cm^3; Inhibitory percentage compared to negative control [3, 12]: 55.4%; Infarcted volume (Mean ± standard deviation) [3, 12]: 0.19 ± 0.06 cm^3; Treatment time after reperfusion giving the maximum effect ([3]; positive control, iv): 30 min
CC(=O)N(CCCCNCCCNC(=O)c1ccc(O)cc1)CCCn1c(=O)[nH]c2ccccc2c1=O [Compound 20, N-[3-(4-{acetyl-[3-(2,4-dioxo-1,4-dihydro-2H-quinazolin-3-yl)propyl]amino}butylamino)propyl]-4-hydroxybenzamide] | 0(0/6) % | 50(3/6) % | 15.2 | 36.4 | 42.5 | 44.7 ± 11.0 | 0.9 ± 1.9 | 
